How the values were obtained:
Assay type in all cases: in vivo
[1] = tested on: STZ mice; assay: Blood glucose in mouse model of type II diabetes with pancreatic islet damage and obesity (Example 5); details: high-fat diet + STZ ICR mice; single administration 0.5 g/kg per day by gavage, three weeks
Method: (§1) It should be noted that the conditions for raising the mice were as follows: the temperature was 23±1° C., the humidity was 55±10%, the lights were turned on between 7 am and 7 pm (the lights were turned off at other time), and the mice were allowed to access to water and feed freely. The experimental feed was mouse growth-stable feed (GB M2118), and the daily feeding and management of the animals were under the responsibility of the animal security department, which provided the animals with sufficient padding and fresh drinking water daily.
SPSS 16.0 software was used for statistical analysis.

[2] = tested on: STZ mice; assay: Blood glucose in mouse pancreatic islet β-cell injury model (Example 3); details: STZ ICR mice; single administration 0.1 g/kg per day by gavage, two weeks; 1 h after last administration
Text: Effects of a Limonoid Compound, Metformin or a Combination Thereof on Blood Glucose in a Mouse Pancreatic Islet β-Cell Injury Model In this example, a mouse pancreatic islet β-cell injury model was established by modeling ICR mice with streptozotocin (STZ) (referred to the prior art literature: Li Nan et al., Protective effect of pine pollen on kidney damage in diabetic nephropathy mice, Science and Technology Review, 2014, 32 (4/5): 95-99), and used to complete the evaluation of hypoglycemic effect in animals (this model could simulate pancreatic islet β-cell damage state of type I and type II diabetics). […] Conditions of experimental feeding: ICR mice (20±2 g), aged 6 weeks, purchased from Zhejiang Academy of Medical Sciences, and subjected to experimental feeding after 7 days of preliminary feeding. […] The experimental feed was mouse growth-stable feed (GB […]), and the daily feeding and management of the animals were under the responsibility of the animal security department, which provided the animals with sufficient padding and fresh drinking water daily. Experimental grouping: 15 male mice were randomly selected as the normal control group. […] Gavage doses: the gavage dose was 0.1 g/kg per day for the […] group, the gavage dose was 0.1 g/kg per day for the […] group, the gavage dose was 0.1 g/kg per day for the […]-glucopyranoside group, the gavage dose of metformin was 0.1 g/kg per day for the metformin group, […] dose of 0.05 g/kg and metformin at a dose of 0.05 g/kg were simultaneously gavaged per day for the […]/metformin combination group, […] dose of 0.05 g/kg and metformin at a dose of 0.05 g/kg were simultaneously gavaged per day for the […]/metformin combination group, […]-glucopyranoside at a dose of 0.05 g/kg and metformin at a dose of 0.05 g/kg were simultaneously gavaged per day for the […]-glucopyranoside/metformin combination group, the gavage volume was 10 mL/kg, and the normal group and the model group were administrated with 10 mL/kg of distilled water. […] SPSS 16.0 software was used for statistical analysis. The data were expressed as mean and standard deviation. The data before and after were analyzed by t-test, and P<0.05 was considered statistically significant.

[3] = tested on: db/db mice; assay: Blood glucose and insulin in mouse model of type II diabetes (Example 4); details: single administration 0.2 g/kg per day by gavage, two weeks
Text: Effects of a Limonoid Compound, Metformin or a Combination Thereof on Blood Glucose and Insulin in a Mouse Model of Type II Diabetes
In the present embodiment, the limonoid compound selected nomilin, deacetylnomilin, nomilin acid, deactylnomilin 17-β-D-glucopyranoside, and a nomilin single administration group, deacetylnomilin single administration group, nomilin acid single administered group, deactylnomilin 17-β-D-glucopyranoside single administration group, and combination thereof with metformin administration groups were set, respectively.
as §1, with “Conditions for experimental feeding: as type II diabetes model mice, 6-week-old SPF-grade db/db mice were purchased from the Nanjing Model Biology Institute, and subjected to experimental feeding after 7 days of preliminary feeding. It” for “It”
Experimental grouping: male db/db mice (20±2 g) were selected, 18 male mice in each group were tested, and drinking bottles were sterilized weekly. The experimental groups included the normal control group (db/m, n=18), the model group (db/db, n=18), the nomilin group (db/db, n=18), the deacetylnomilin group (db/db, n=18), the nomilin acid group (db/db, n=18), the deactylnomilin 17-β-D-glucopyranoside group (db/db, n=18), the metformin group (db/db, n=18), the nomilin/metformin combination group (db/db, n=18), the deacetylnomilin/metformin combination group (db/db, n=18), the nomilin acid/metformin combination group (db/db, n=18), the deactylnomilin 17-β-D-glucopyranoside/combination group (db/db, n=18).
Gavage doses: nomilin at a dose of 0.2 g/kg was gavaged per day for the nomilin group, deacetylnomilin at a dose of 0.2 g/kg was gavaged per day for the deacetylnomilin group, nomilin acid at a dose of 0.2 g/kg was gavaged per day for the nomilin acid group, deacetylnomilin […] at a dose of 0.2 g/kg was gavaged per day for the deactylnomilin glucopyranoside group, metformin at a dose of 0.2 g/kg was gavaged per day for the metformin group, nomilin at a dose of 0.1 g/kg and metformin at a dose of 0.1 g/kg were simultaneously gavaged per day for the nomilin/metformin combination group, nomilin acid at a dose of 0.1 g/kg and metformin at a dose of 0.1 g/kg were simultaneously gavaged per day for the nomilin acid/metformin combination group, deacetylnomilin at a dose of 0.1 g/kg and metformin at a dose of 0.1 g/kg were simultaneously gavaged per day for the deacetylnomilin/metformin combination group, deactylnomilin 17-β-D-glucopyranoside at a dose of 0.1 g/kg and metformin at a dose of 0.1 g/kg were simultaneously gavaged per day for the deactylnomilin 17-β-D-glucopyranoside/metformin combination group, the gavage volume was 10 mL/kg, and the normal group and the model group were administrated with 10 mL/kg of distilled water. Two weeks later, the blood glucose values were measured by tail trimming method (Johnson's blood glucose meter) 1 h after the last administration, and serum insulin levels were measured with blood collected from orbital cavity by enzyme-linked immunosorbent assay (Elisa), and the average of each group was obtained. SPSS 16.0 software was used for statistical analysis. The data were expressed as mean and standard deviation. The data before and after were analyzed by t-test, and P<0.05 was considered statistically significant.

Molecule	Blood glucose value [1]	Blood glucose value [2]	further results
nomilinic acid 17-β-D-glucopyranoside	13.5 ± 2.4 mmol/L		
CC1(C)O[C@](C)(O)[C@]2(C)[C@H]3CC[C@@]4(C)[C@H](c5ccoc5)OC(=O)[C@H]5O[C@]54[C@]3(C)C(=O)C[C@@H]12 [Ichangensin, ichangensin]		14.5 ± 3.5 mmol/L	
CC(C)(O)[C@@H]1CC(=O)[C@]2(C)[C@H](CC[C@@]3(C)[C@H](c4ccoc4)OC(=O)[C@H]4O[C@]432)[C@]12COC(=O)C[C@@H]2O [Ichangin, ichangin]		14.8 ± 1.9 mmol/L	
nomilin 17-β-D-glucopyranoside	12.8 ± 2.9 mmol/L		
ichangin 17-β-D-glucopyranoside		14.9 ± 2.1 mmol/L	
deactylnomilin 17-β-D-glucopyranoside	12.7 ± 2.5 mmol/L		Insulin ([3]; serum, Elisa): 8.40 ± 3.27 pg/mL; Blood glucose value ([3]; 1 h after last administration): 12.8 ± 5.5 mmol/L
